Experimental data published in US8580825B2, “Oxadiazole inhibitors of leukotriene production” (Boehringer Ingelheim International GmbH, priority 2010, dated 2013).

What was measured:
[1] = target: T1, recombinant human FLAP protein (Homo sapiens, UniProt P20292); assay: FLAP binding assay (Scintillation Proximity Assay, displacement of [125I]L-691,831); settings: read-out: FLAP SPA IC50
T1 construct: made in house; host or cells: Sf9 insect cells (100,000xg membrane fraction used)
T1 sequence (P20292 1-161): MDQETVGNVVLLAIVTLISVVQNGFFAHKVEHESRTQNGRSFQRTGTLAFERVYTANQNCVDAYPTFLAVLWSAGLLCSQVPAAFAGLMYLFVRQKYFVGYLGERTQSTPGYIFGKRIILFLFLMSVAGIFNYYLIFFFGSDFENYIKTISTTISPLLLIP
Procedure: Compounds are assessed for the ability to bind to FLAP in a binding assay that measures compound-specific displacement of an iodinated (^125I) FLAP inhibitor via a Scintillation Proximity Assay format (adapted from S. Charleson et al., Mol. Pharmacol., 1992, 41, 873-879).
Cell pellets produced from sf9 insect cells expressing recombinant human FLAP protein are resuspended in buffer A [15 mM Tris-HCl (pH 7.5), 2 mM MgCl2, 0.3 mM EDTA, 1 mM PMSF]. The cells are lysed with a Dounce homogenizer and the material is centrifuged at 10,000×g for 10 minutes. The supernatant is then collected and centrifuged at 100,000×g for 60 minutes. To prepare membrane protein for an assay, an aliquot of the 100,000×g pellet is resuspended in 1 ml of buffer A, Dounce homogenized, and finally subjected to polytron mixing (30 seconds). Membrane protein (25 μl, 5 μg) is mixed with WGA SPA beads (Amersham) and stirred for 1 h. […] (final concentrations: beads, 200 μg/well; protein, 5 μg/well; [^125I] probe, 0.08 nM/well (17 nCi/well). The plates are shaken for 2 h before reading on a Microbeta plate reader. Non-specific binding is determined by the addition of 10 μM cold L-691,831 compound.

[2] = system: synthesis of LTB4 in human whole blood; assay: human whole blood LTB4 production inhibition assay; type: cell-based; settings: calcimycin stimulated, read-out: hWB LTB4 IC50
Procedure: Compounds are additionally tested in a human whole blood assay to determine their ability to inhibit the synthesis of LTB4 in a cellular system. Compounds are combined with heparinized human whole blood and incubated for 15 minutes at 37° C. Calcimycin (20 μM final, prepared in phosphate-buffered saline, pH 7.4) is then added and the mixture is incubated for another 30 minutes at 37° C. The samples are centrifuged for 5 min at low speed (1500×g) and the plasma layer is removed. Plasma LTB4 concentrations are then measured using an antibody-based homogenous time-resolved fluorescence method (CisBio, Bedford, Mass.).

Row | SMILES | IC50 [1] [nM] | IC50 [2] [nM]
1 | CC(O)Cn1cc(-c2nc(C(C)(c3ccc(-c4cnc(N)nc4)nc3)C(C)C)no2)cn1 (stereo not shown) [Example 1, 1-[4-(3-{2-[6-(2-aminopyrimidin-5-yl)pyridin-3-yl]-3-methylbutan-2-yl}-1,2,4-oxadiazol-5-yl)-1H-pyrazol-1-yl]propan-2-ol] | 8.3 | 54
2 | CC(C)C(C)(c1ccc(-c2cnc(N)nc2)nc1)c1noc(-c2cnn(CC(C)(C)O)c2)n1 (stereo not shown) [Example 2, 1-[4-(3-{2-[6-(2-aminopyrimidin-5-yl)pyridin-3-yl]-3-methylbutan-2-yl}-1,2,4-oxadiazol-5-yl)-1H-pyrazol-1-yl]-2-methylpropan-2-ol] | 10 | 74
3 | CC(C)C(C)(c1ccc(-c2cnc(N)nc2)nc1)c1noc(-c2cnn(C)c2)n1 (stereo not shown) [Example 3, 5-(5-{3-methyl-2-[5-(1-methyl-1H-pyrazol-4-yl)-1,2,4-oxadiazol-3-yl]butan-2-yl}pyridin-2-yl)pyrimidin-2-amine] | 4.7 | 68
4 | CC(C)[C@](C)(c1ccc(-c2cnc(N)nc2)nc1)c1noc(-c2cnn(C)c2)n1 [Example 4, 5-(5-{(2R)-3-methyl-2-[5-(1-methyl-1H-pyrazol-4-yl)-1,2,4-oxadiazol-3-yl]butan-2-yl}pyridin-2-yl)pyrimidin-2-amine] | 3 | 20
5 | CC(C)[C@@](C)(c1ccc(-c2cnc(N)nc2)nc1)c1noc(-c2cnn(C)c2)n1 [Example 5, 5-(5-{(2S)-3-methyl-2-[5-(1-methyl-1H-pyrazol-4-yl)-1,2,4-oxadiazol-3-yl]butan-2-yl}pyridin-2-yl)pyrimidin-2-amine] | 76.2 | 750
6 | CC(C)C(C)(c1ccc(-c2cnc(N)nc2)nc1)c1noc(-c2cnn(C(C)(C)CO)c2)n1 (stereo not shown) [Example 6, 2-[4-(3-{2-[6-(2-aminopyrimidin-5-yl)pyridin-3-yl]-3-methylbutan-2-yl}-1,2,4-oxadiazol-5-yl)-1H-pyrazol-1-yl]-2-methylpropan-1-ol] | 8.6 | 220
7 | CC(C)C(C)(c1ccc(-c2cnc(N)nc2)nc1)c1noc(-c2cnn(CC(=O)N(C)C)c2)n1 (stereo not shown) [Example 7, 2-[4-(3-{2-[6-(2-aminopyrimidin-5-yl)pyridin-3-yl]-3-methylbutan-2-yl}-1,2,4-oxadiazol-5-yl)-1H-pyrazol-1-yl]-N,N-dimethylacetamide] | 14.4 | 180
8 | COCCn1cc(-c2nc(C(C)(c3ccc(-c4cnc(N)nc4)nc3)C(C)C)no2)cn1 (stereo not shown) [Example 8, 5-[5-(2-{5-[1-(2-methoxyethyl)-1H-pyrazol-4-yl]-1,2,4-oxadiazol-3-yl}-3-methylbutan-2-yl)pyridin-2-yl]pyrimidin-2-amine] | 6.3 | 68
9 | CC(C)C(C)(c1ccc(-c2cnc(N)nc2)nc1)c1noc(-c2cnn(C3COC3)c2)n1 (stereo not shown) [Example 9, 5-[5-(3-methyl-2-{5-[1-(oxetan-3-yl)-1H-pyrazol-4-yl]-1,2,4-oxadiazol-3-yl}butan-2-yl)pyridin-2-yl]pyrimidin-2-amine] | 5.9 | 25
10 | COCCNc1cnc(-c2nc(C(C)(c3ccc(-c4cnc(N)nc4)nc3)C(C)C)no2)cn1 (stereo not shown) [Example 10, 5-{5-[2-(5-{5-[(2-methoxyethyl)amino]pyrazin-2-yl}-1,2,4-oxadiazol-3-yl)-3-methylbutan-2-yl]pyridin-2-yl}pyrimidin-2-amine] | 4.9 | 60
11 | CC(C)C(C)(c1ccc(-c2cnc(N)nc2)nc1)c1noc(-c2cnn3cccnc23)n1 (stereo not shown) [Example 11, 5-(5-{3-methyl-2-[5-(pyrazolo[1,5-a]pyrimidin-3-yl)-1,2,4-oxadiazol-3-yl]butan-2-yl}pyridin-2-yl)pyrimidin-2-amine] | 2.9 | 40
12 | CCNc1cnc(-c2nc(C(C)(c3ccc(-c4cnc(N)nc4)nc3)C(C)C)no2)cn1 (stereo not shown) [Example 12, 5-[5-(2-{5-[5-(ethylamino)pyrazin-2-yl]-1,2,4-oxadiazol-3-yl}-3-methylbutan-2-yl)pyridin-2-yl]pyrimidin-2-amine] | 3.6 | 55
13 | CC(C)C(C)(c1ccc(-c2cnc(N)nc2)nc1)c1noc(-c2cnc(N3CCNCC3)cn2)n1 (stereo not shown) [Example 13, 5-[5-(3-methyl-2-{5-[5-(piperazin-1-yl)pyrazin-2-yl]-1,2,4-oxadiazol-3-yl}butan-2-yl)pyridin-2-yl]pyrimidin-2-amine] | 10.9 | 490
14 | CC(C)C(C)(c1ccc(-c2cnc(N)nc2)nc1)c1noc(-c2cnn(CC(F)F)c2)n1 (stereo not shown) [Example 14, 5-[5-(2-{5-[1-(2,2-difluoroethyl)-1H-pyrazol-4-yl]-1,2,4-oxadiazol-3-yl}-3-methylbutan-2-yl)pyridin-2-yl]pyrimidin-2-amine] | 6.5 | 45
15 | CNc1cnc(-c2nc(C(C)(c3ccc(-c4cnc(N)nc4)nc3)C(C)C)no2)cn1 (stereo not shown) [Example 15, 5-[5-(3-methyl-2-{5-[5-(methylamino)pyrazin-2-yl]-1,2,4-oxadiazol-3-yl}butan-2-yl)pyridin-2-yl]pyrimidin-2-amine] | 2.3 | 75
16 | CC(C)Nc1cnc(-c2nc(C(C)(c3ccc(-c4cnc(N)nc4)nc3)C(C)C)no2)cn1 (stereo not shown) [Example 16, 5-[5-(3-methyl-2-{5-[5-(propan-2-ylamino)pyrazin-2-yl]-1,2,4-oxadiazol-3-yl}butan-2-yl)pyridin-2-yl]pyrimidin-2-amine] | 2.3 | 65
17 | CC(C)C(C)(c1ccc(-c2cnc(N)nc2)nc1)c1noc(-c2cnn(CCF)c2)n1 (stereo not shown) [Example 17, 5-[5-(2-{5-[1-(2-fluoroethyl)-1H-pyrazol-4-yl]-1,2,4-oxadiazol-3-yl}-3-methylbutan-2-yl)pyridin-2-yl]pyrimidin-2-amine] | 4.5 | 53
18 | COCCN(C)c1cnc(-c2nc(C(C)(c3ccc(-c4cnc(N)nc4)nc3)C(C)C)no2)cn1 (stereo not shown) [Example 18, 5-{5-[2-(5-{5-[(2-methoxyethyl)(methyl)amino]pyrazin-2-yl}-1,2,4-oxadiazol-3-yl)-3-methylbutan-2-yl]pyridin-2-yl}pyrimidin-2-amine] | 2.7 | 83
19 | CC(C)C(C)(c1ccc(-c2cnc(N)nc2)nc1)c1noc(-c2cnc(NC[C@@H](C)O)cn2)n1 (stereo partly drawn) [Example 19, (2R)-1-{[5-(3-{2-[6-(2-aminopyrimidin-5-yl)pyridin-3-yl]-3-methylbutan-2-yl}-1,2,4-oxadiazol-5-yl)pyrazin-2-yl]amino}propan-2-ol] | 4.8 | 140
20 | CC(C)C(C)(c1ccc(-c2cnc(N)nc2)nc1)c1noc(-c2cnc(NC(C)(C)CO)cn2)n1 (stereo not shown) [Example 20, 2-{[5-(3-{2-[6-(2-aminopyrimidin-5-yl)pyridin-3-yl]-3-methylbutan-2-yl}-1,2,4-oxadiazol-5-yl)pyrazin-2-yl]amino}-2-methylpropan-1-ol] | 4 | 140
21 | CC(C)C(C)(c1ccc(-c2cnc(N)nc2)nc1)c1noc(-c2cn(C)cn2)n1 (stereo not shown) [Example 21, 5-(5-{3-methyl-2-[5-(1-methyl-1H-imidazol-4-yl)-1,2,4-oxadiazol-3-yl]butan-2-yl}pyridin-2-yl)pyrimidin-2-amine] | 51.2 | 570
22 | CC(C)C(C)(c1ccc(-c2cnc(N)nc2)nc1)c1noc(-c2cnc(NC[C@H](C)O)cn2)n1 (stereo partly drawn) [Example 22, (2S)-1-{[5-(3-{2-[6-(2-aminopyrimidin-5-yl)pyridin-3-yl]-3-methylbutan-2-yl}-1,2,4-oxadiazol-5-yl)pyrazin-2-yl]amino}propan-2-ol] | 3.6 | 140
23 | COCCn1cc(-c2nc([C@@](C)(c3ccc(-c4cnc(N)nc4)nc3)C(C)C)no2)cn1 [Example 23, 5-{5-[(2R)-2-{5-[1-(2-methoxyethyl)-1H-pyrazol-4-yl]-1,2,4-oxadiazol-3-yl}-3-methylbutan-2-yl]pyridin-2-yl}pyrimidin-2-amine] | 3.9 | 39
24 | COCCn1cc(-c2nc([C@](C)(c3ccc(-c4cnc(N)nc4)nc3)C(C)C)no2)cn1 [Example 24, 5-{5-[(2S)-2-{5-[1-(2-methoxyethyl)-1H-pyrazol-4-yl]-1,2,4-oxadiazol-3-yl}-3-methylbutan-2-yl]pyridin-2-yl}pyrimidin-2-amine] | 170 | 990
25 | CNc1ncc(-c2ccc([C@](C)(c3noc(-c4cnn(CC(=O)N(C)C)c4)n3)C3CC3)cn2)cn1 [Example 176, 2-[4-(3-{(R)-1-Cyclopropyl-1-[6-(2-methylamino-pyrimidin-5-yl)-pyridin-3-yl]-ethyl}-[1,2,4]oxadiazol-5-yl)-pyrazol-1-yl]-N,N-dimethyl-acetamide] |  | 267
